Results as given in patent publication US7183324B2, “2,3,4-substituted cyclopentanones as therapeutic agents” (Allergan, Inc., priority 2004, dated 2007).

What was measured:
[1] = target: T1, HEP3D (Homo sapiens, UniProt P43115); assay: Radioligand binding, EP3 receptor; conditions: [3H]PGE2 5 nM
T1 sequence (P43115 1-374 isoform P43115-4): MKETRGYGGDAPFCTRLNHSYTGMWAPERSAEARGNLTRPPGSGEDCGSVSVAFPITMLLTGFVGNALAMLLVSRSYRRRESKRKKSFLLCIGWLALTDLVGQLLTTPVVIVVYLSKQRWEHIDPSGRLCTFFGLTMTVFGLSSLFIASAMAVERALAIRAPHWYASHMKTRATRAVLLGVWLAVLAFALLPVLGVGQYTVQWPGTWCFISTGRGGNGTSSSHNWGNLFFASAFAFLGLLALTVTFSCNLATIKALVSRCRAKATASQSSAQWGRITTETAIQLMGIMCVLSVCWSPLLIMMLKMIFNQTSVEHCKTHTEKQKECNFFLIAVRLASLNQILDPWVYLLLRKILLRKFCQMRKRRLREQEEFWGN
Description: (§1) HEK-293 cells stably expressing the human or feline FP receptor, or EP1, EP2, or EP4 receptors were washed with TME buffer, scraped from the bottom of the flasks, and homogenized for 30 sec using a Brinkman PT 10/35 polytron. TME buffer was added to achieve a final 40 ml volume in the centrifuge tubes (the composition of TME is 100 mM TRIS base, 20 mM MgCl2, […]; 10N HCl is added to achieve a pH of 7.4).
(§2) The cell homogenate was centrifuged at 19000 r.p.m. for 20 min at 4° C. using a Beckman Ti-60 rotor. The resultant pellet was resuspended in TME buffer to give a final 1 mg/ml protein concentration, as determined by Biorad assay. Radioligand binding competition assays vs. [^3H-]17-phenyl PGF2α (5 nM) were performed in a 100 μl volume for 60 min. Binding reactions were started by adding plasma membrane fraction. The reaction was terminated by the addition of 4 ml ice-cold TRIS-HCl buffer and rapid filtration through glass fiber GF/B filters using a Brandel cell harvester. The filters were washed 3 times with ice-cold buffer and oven dried for one hour. Non-specific binding was determined with 10 uM unlabeled 17-phenyl PGF2α.
(§3) [^3H-] PGE2 (5 nM; specific activity 180 Ci mmol) was used as the radioligand for EP receptors. Binding studies employing EP1, EP2, EP3, EP4 were performed in duplicate in at least three separate experiments. A 200 μl assay volume was used. Incubations were for 60 min at 25° C. and were terminated by the addition of 4 ml of ice-cold 50 mM TRIS-HCl, followed by rapid filtration through Whatman GF/B filters and three additional 4 ml washes in a cell harvester (Brandel). Non-specific binding determined with 10^−5M of unlabeled PGE2.

[2] = target: T2, HEP4 (Homo sapiens, UniProt P35408); assay: Radioligand binding, EP4 receptor; conditions: [3H]PGE2 5 nM, HEK-293 membranes
T2 construct: expressed in transfected cells; host or cells: HEK-293
T2 sequence (P35408 whole entry): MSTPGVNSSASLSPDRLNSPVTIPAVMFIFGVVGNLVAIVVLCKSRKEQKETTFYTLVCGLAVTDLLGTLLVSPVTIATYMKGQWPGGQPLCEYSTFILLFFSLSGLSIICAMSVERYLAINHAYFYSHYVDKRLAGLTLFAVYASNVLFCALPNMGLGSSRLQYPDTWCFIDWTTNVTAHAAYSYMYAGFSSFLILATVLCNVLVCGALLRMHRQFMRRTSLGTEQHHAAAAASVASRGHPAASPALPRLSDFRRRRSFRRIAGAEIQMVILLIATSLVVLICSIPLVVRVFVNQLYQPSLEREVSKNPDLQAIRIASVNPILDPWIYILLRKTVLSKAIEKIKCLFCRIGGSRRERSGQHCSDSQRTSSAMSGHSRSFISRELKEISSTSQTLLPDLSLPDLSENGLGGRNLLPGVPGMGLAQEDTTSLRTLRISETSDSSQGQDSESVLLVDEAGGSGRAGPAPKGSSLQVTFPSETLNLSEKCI
Description: as §1, §2, §3

[3] = target: T3, hEP4/Gqs5 (Homo sapiens, UniProt P35408); assay: FLIPR calcium signal, hEP4/Gqs5; format: cell-based; conditions: HEK-293 (EBNA) cells, read-out: FUNCTIONAL EC50 HEP4
T3 construct: expressed in transfected cells; host or cells: HEK-293 (EBNA)
T3 sequence (P35408 whole entry): as above
Description: (§4) HEK-293 (EBNA) cells, stably expressing one type or subtype of recombinant human prostaglandin receptors (prostaglandin receptors expressed: hDP/Gqs5; hEP1; hEP2/Gqs5; hEP3A/Gqi5; hEP4/Gqs5; hFP; hIP; hTP), were cultured in 100 mm culture dishes in high-glucose DMEM medium containing 10% fetal bovine serum, 2 mM 1-glutamine, 250 μg/ml geneticin (G418) and 200 μg/ml hygromycin B as selection markers, and 100 units/ml penicillin G, 100 μg/ml streptomycin and 0.25 μg/ml amphotericin B. • (b) Calcium Signal Studies on the FLIPR™
Cells were seeded at a density of 5×10^4 cells per well in Biocoat® Poly-D-lysine-coated black-wall, clear-bottom 96-well plates (Becton-Dickinson) and allowed to attach overnight in an incubator at 37° C. Cells were then washed two times with HBSS-HEPES buffer (Hanks Balanced Salt Solution without bicarbonate and phenol red, 20 mM HEPES, pH 7.4) using a Denley Cellwash plate washer (Labsystems). After 45 minutes of dye-loading in the dark, using the calcium-sensitive dye Fluo-4 AM at a final concentration of 2 μM, plates were washed four times with HBSS-HEPES buffer to remove excess dye leaving 100 μl in each well. Plates were re-equilibrated to 37° C. for a few minutes.
Cells were excited with an Argon laser at 488 nm, and emission was measured through a 510–570 nm bandwidth emission filter (FLIPR™, Molecular Devices, Sunnyvale, Calif.). Drug solution was added in a 50 μl volume to each well to give the desired final concentration. The peak increase in fluorescence intensity was recorded for each well. On each plate, four wells each served as negative (HBSS-HEPES buffer) and positive controls (standard agonists: BW245C (hDP); PGE2 (hEP1; hEP2/Gqs5; hEP3A/Gqi5; hEP4/Gqs5); PGF2α (hFP); carbacyclin (hIP); U46619 (hTP), depending on receptor). The peak fluorescence change in each drug-containing well was then expressed relative to the controls.
Compounds were tested in a high-throughput (HTS) or concentration-response (CoRe) format. In the HTS format, forty-four compounds per plate were examined in duplicates at a concentration of 10^−5 M. To generate concentration-response curves, four compounds per plate were tested in duplicates in a concentration range between 10^−5 and 10^−11 M. The duplicate values were averaged. In either, HTS or CoRe format each compound was tested on at least 3 separate plates using cells from different passages to give an n≧3.

[4] = test system: Beagle dogs; assay: Intraocular pressure in dogs (pneumatonometry); format: in vivo; conditions: dog, topical 25 μL drop, Conc. 0.1%, 5 day study
Description: (§5) • Intraocular Pressure (IOP) Intraocular pressure studies in dogs involved pneumatonometry performed in conscious, Beagle dogs of both sexes (10–15 kg). The animals remained conscious throughout the study and were gently restrained by hand. Drugs were administered topically to one eye as a 25 μL volume drop, the other eye received 25 μL vehicle (0.1% polysorbate 80:10 mM TRIS) as a control. Proparacaine (0.1%) was used for corneal anesthesia during tonometry. Intraocular pressure was determined just before drug administration and at 2, 4 and 6 hr thereafter on each day of the 5 day study. Drug was administered immediately after the first IOP reading. • An analogous procedure was carried out with cynomolgus monkeys with measurements at 2, 4, 6, and 24 hours after a single dose. • Pupil Diameter • Dog pupil diameter was measured using an optistick (a mm ruler which included half-circle references of standard widths (mm) for reference. Gently restraining the dog by hand, pupil diameter was determined by matching a half-circle to the pupil in normal room light. In dogs with very dark pupils a specialized penlight was used, but only very briefly to avoid pupil constriction. Pupil diameter was measured at the same time as IOP and hyperemia. • Ocular Surface Hyperemia • Ocular surface hyperemia was visually assessed and scored according to a system typically used clinically.

[5] = test system: Beagle dogs; assay: Ocular surface hyperemia in dogs; format: in vivo; conditions: dog, topical, Conc. 0.1%; score: trace 0.5, mild 1, moderate 2, severe 3
Description: as §5
• Ocular surface hyperemia was evaluated at the same time points as intraocular pressure measurement. It should be noted that untreated dog eyes frequently have a pink/red tone. Thus, values of trace or even mild are not necessarily out of the normal range.

[6] = test system: cynomolgus monkeys; assay: Intraocular pressure in cynomolgus monkeys; format: in vivo; conditions: monkey, topical single dose, Conc. 0.1%
Description: as §5

[7] = target: T4, hIP (Homo sapiens, UniProt P43119); assay: FLIPR calcium signal, hIP; format: cell-based; conditions: HEK-293 (EBNA) cells, read-out: FUNCTIONAL EC50 HIP
T4 construct: expressed in transfected cells; host or cells: HEK-293 (EBNA)
T4 sequence (P43119 whole entry): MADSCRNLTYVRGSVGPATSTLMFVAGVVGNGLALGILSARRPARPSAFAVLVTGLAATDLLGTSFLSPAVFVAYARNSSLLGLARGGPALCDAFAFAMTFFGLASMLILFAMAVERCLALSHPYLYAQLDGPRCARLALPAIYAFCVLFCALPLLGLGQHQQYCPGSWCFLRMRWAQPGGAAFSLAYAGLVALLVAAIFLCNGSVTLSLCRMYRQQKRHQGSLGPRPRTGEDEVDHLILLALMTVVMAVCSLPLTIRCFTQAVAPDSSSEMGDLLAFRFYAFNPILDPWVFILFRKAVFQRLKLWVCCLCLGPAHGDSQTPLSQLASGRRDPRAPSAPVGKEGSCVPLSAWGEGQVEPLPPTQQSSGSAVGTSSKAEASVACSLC
Description: as §4
Cells were seeded at a density of 5×10^4 cells per well in Biocoat® Poly-D-lysine-coated black-wall, clear-bottom 96-well plates (Becton-Dickinson) and allowed to attach overnight in an incubator at 37° C. Cells were then washed two times with HBSS-HEPES buffer (Hanks Balanced Salt Solution without bicarbonate and phenol red, 20 mM HEPES, pH 7.4) using a Denley Cellwash plate washer (Labsystems). […]
Cells were excited with an Argon laser at 488 nm, and emission was measured through a 510–570 nm bandwidth emission filter (FLIPR™, Molecular Devices, Sunnyvale, Calif.). […] The peak increase in fluorescence intensity was recorded for each well. […] The peak fluorescence change in each drug-containing well was then expressed relative to the controls. […]

SMILES | IC50 [1] | IC50 [2] | EC50 [3] | Max. ΔIOP [4] | Max hyperemia [5] | Max. ΔIOP [6] | EC50 [7]
O=C(O)CSCCCS[C@H]1C(=O)C[C@@H](CO)[C@@H]1/C=C/C(O)Cc1ccccc1 (single isomer, unassigned) [Compound 151] | > 10000 nM | 53 nM | 59 nM | −4.0 mm Hg | 1.6 | −2.9 mm Hg | 
COC(=O)CSCCCS[C@H]1C(=O)C[C@@H](CO)[C@@H]1/C=C/C(O)CCc1ccc2ccccc2c1 (single isomer, unassigned) [drawing 39] |  | 140 nM | 1860 nM |  |  |  | > 10000 nM
